Each compound was assayed against T1, TNIK (Homo sapiens, UniProt Q9UKE5) (assay: ADP-Glo Kinase Assay, inhibition activity on TNIK). Settings: not given.
T1 construct: purchased Promega V4158
T1 sequence (Q9UKE5 1-367 limits assumed): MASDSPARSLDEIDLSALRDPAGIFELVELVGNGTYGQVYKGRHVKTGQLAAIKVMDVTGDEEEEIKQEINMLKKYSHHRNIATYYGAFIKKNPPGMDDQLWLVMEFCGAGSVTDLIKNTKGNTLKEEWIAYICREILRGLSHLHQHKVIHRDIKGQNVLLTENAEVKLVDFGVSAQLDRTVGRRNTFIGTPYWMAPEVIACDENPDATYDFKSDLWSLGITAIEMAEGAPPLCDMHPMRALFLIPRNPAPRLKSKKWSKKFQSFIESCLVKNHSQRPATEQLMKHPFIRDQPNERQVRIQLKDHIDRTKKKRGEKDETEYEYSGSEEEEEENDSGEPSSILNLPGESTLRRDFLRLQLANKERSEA
Assay type: biochemical
Protocol: The inhibition activities on TNIK, IKKε and TBK1 were measured by a luminometer, TNIK/IKKε/TBK1 Kinase Enzyme System (Promega, Ca# V4158; Invitrogen, PR8031B, Promega, Ca# V3991) and ADP-Glo Kinase Assay using ADP-Glo™ Kinase Analysis Kit (Promega, Ca# V9101) and a kinase reaction buffer [40 mM Tris(pH 7.5), 20 mM MgCl2, 0.1 mg/mL BSA] in accordance with the manufacturer's protocol.
`COC(=O)c1ccc(-c2ccc(NC(=O)c3ccccc3)c3c2CNC3=O)cc1` [Example 10, methyl 4-(7-benzamido-1-oxoisoindolin-4-yl)benzo ate] was tested, and the “TNIK (μM)” value was “Insoluble”.
In the case of `CC(=O)c1ccc(-c2ccc(NC(=O)c3ccccc3)c3c2CNC3=O)cc1` [Example 13, N-(7-(4-acetylphenyl)-3-oxoisoindolin-4-yl)benzamide], the “TNIK (μM)” value is reported as “Insoluble”.
For `O=C(Nc1ccc(-c2cc(Cl)ccc2Cl)c2c1C(=O)NC2)c1ccccc1` [Example 19, N-(7-(2,5-dichlorophenyl)-3-oxoisoindolin-4-yl)benzamide], the “TNIK (μM)” value was “Insoluble”.
With `COc1cc(F)ccc1-c1ccc(NC(=O)c2ccccc2)c2c1CNC2=O` [Example 22, N-(7-(4-fluoro-2-methoxyphenyl)-3-oxoisoindolin-4-yl)benzamide] the “TNIK (μM)” value was “Insoluble”.
For `COc1ccc(-c2ccc(NC(=O)c3ccccc3)c3c2CNC3=O)c(OC)c1OC` [Example 25, N-(3-oxo-7-(2,3,4-trimethoxyphenyl)isoindolin-4-yl)benzamide], the “TNIK (μM)” value was “Insoluble”.

Same assay, conditions: read-out: TNIK
Compound `CCc1ccccc1-c1ccc(NC(=O)c2ccccc2)c2c1CNC2=O` [Example 1, N-(7-(2-ethylphenyl)-3-oxoisoindolin-4-yl)benzamide] has an IC50 of 3.1 µM.
`CC(C)c1cccc(-c2ccc(NC(=O)c3ccccc3)c3c2CNC3=O)c1` [Example 2, N-(7-(3-isopropylphenyl)-3-oxoisoindolin-4-yl)benzamide] was tested, and the IC50 was greater than 20 µM.
`CC(C)(C)c1ccc(-c2ccc(NC(=O)c3ccccc3)c3c2CNC3=O)cc1` [Example 3, N-(7-(4-(tert-butyl)phenyl)-3-oxoisoindolin-4-yl)benzamide] was tested, and the IC50 was greater than 20 µM.
For `O=C(Nc1ccc(-c2ccccc2OC(F)(F)F)c2c1C(=O)NC2)c1ccccc1` [Example 4, N-(3-oxo-7-(2-(trifluoromethoxy)phenyl)isoindolin-4-yl)benzamide], the IC50 was 3 µM.
Work on `O=C(Nc1ccc(-c2cccc(OC(F)(F)F)c2)c2c1C(=O)NC2)c1ccccc1` [Example 5, N-(3-oxo-7-(3-(trifluoromethoxy)phenyl)isoindolin-4-yl)benzamide] yielded an IC50 greater than 20 µM.
Compound `CC(C)Oc1ccccc1-c1ccc(NC(=O)c2ccccc2)c2c1CNC2=O` [Example 6, N-(7-(2-isopropoxyphenyl)-3-oxoisoindolin-4-yl)benzamide] has an IC50 greater than 20 µM.
Work on `CC(C)Oc1cccc(-c2ccc(NC(=O)c3ccccc3)c3c2CNC3=O)c1` [Example 7, N-(7-(3-isopropoxyphenyl)-3-oxoisoindolin-4-yl)benzamide] yielded an IC50 greater than 20 µM.
Compound `COC(=O)c1ccccc1-c1ccc(NC(=O)c2ccccc2)c2c1CNC2=O` [Example 8, methyl 2-(7-benzamido-1-oxoisoindolin-4-yl)benzo ate] has an IC50 greater than 20 µM.
`COC(=O)c1cccc(-c2ccc(NC(=O)c3ccccc3)c3c2CNC3=O)c1` [Example 9, methyl 3-(7-benzamido-1-oxoisoindolin-4-yl)benzo ate] was tested, and the IC50 was greater than 20 µM.
In the case of `CC(=O)c1ccccc1-c1ccc(NC(=O)c2ccccc2)c2c1CNC2=O` [Example 11, N-(7-(2-acetylphenyl)-3-oxoisoindolin-4-yl)benzamide], the IC50 is reported as 9.5 µM.
`CC(=O)c1cccc(-c2ccc(NC(=O)c3ccccc3)c3c2CNC3=O)c1` [Example 12, N-(7-(3-acetylphenyl)-3-oxoisoindolin-4-yl)benzamide] showed an IC50 greater than 20 µM.
For `CSc1ccccc1-c1ccc(NC(=O)c2ccccc2)c2c1CNC2=O` [Example 14, N-(7-(2-(methylthio)phenyl)-3-oxoisoindolin-4-yl)benzamide], the IC50 was 1.1 µM.
`O=C(Nc1ccc(-c2ccc(F)cc2F)c2c1C(=O)NC2)c1ccccc1` [Example 15, N-(7-(2,4-difluorophenyl)-3-oxoisoindolin-4-yl)benzamide] showed an IC50 greater than 20 µM.
`Cc1cccc(-c2ccc(NC(=O)c3ccccc3)c3c2CNC3=O)c1C` [Example 16, N-(7-(2,3-dimethylphenyl)-3-oxoisoindolin-4-yl)benzamide] was tested, and the IC50 was 1.3 µM.
`O=C(Nc1ccc(-c2cccc(Cl)c2Cl)c2c1C(=O)NC2)c1ccccc1` [Example 17, N-(7-(2,3-dichlorophenyl)-3-oxoisoindolin-4-yl)benzamide] gave an IC50 of 1 µM.
With `O=C(Nc1ccc(-c2ccc(Cl)cc2Cl)c2c1C(=O)NC2)c1ccccc1` [Example 18, N-(7-(2,4-dichlorophenyl)-3-oxoisoindolin-4-yl)benzamide] the IC50 was greater than 20 µM.
`O=C(Nc1ccc(-c2ccc(Cl)c(Cl)c2)c2c1C(=O)NC2)c1ccccc1` [Example 20, N-(7-(3,4-dichlorophenyl)-3-oxoisoindolin-4-yl)benzamide] gave an IC50 greater than 20 µM.
`O=C(Nc1ccc(-c2cc(Cl)cc(Cl)c2)c2c1C(=O)NC2)c1ccccc1` [Example 21, N-(7-(3,5-dichlorophenyl)-3-oxoisoindolin-4-yl)benzamide] showed an IC50 greater than 20 µM.
`O=C(Nc1ccc(-c2cccc(F)c2Cl)c2c1C(=O)NC2)c1ccccc1` [Example 23, N-(7-(2-chloro-3-fluorophenyl)-3-oxoisoindolin-4-yl)benzamide] gave an IC50 of 8.9 µM.
With `COc1cccc(-c2ccc(NC(=O)c3ccccc3)c3c2CNC3=O)c1F` [Example 24, N-(7-(2-fluoro-3-methoxyphenyl)-3-oxoisoindolin-4-yl)benzamide] the IC50 was greater than 20 µM.
`Cc1ccc(-c2ccc(NC(=O)c3ccccc3)c3c2CNC3=O)cc1C` [Example 26, N-(7-(3,4-dimethylphenyl)-3-oxoisoindolin-4-yl)benzamide] was tested, and the IC50 was 3.8 µM.
`Cc1cc(C)cc(-c2ccc(NC(=O)c3ccccc3)c3c2CNC3=O)c1` [Example 27, N-(7-(3,5-dimethylphenyl)-3-oxoisoindolin-4-yl)benzamide] showed an IC50 of 3 µM.
`Cc1cccc(C)c1-c1ccc(NC(=O)c2ccccc2)c2c1CNC2=O` [Example 28, N-(7-(2,6-dimethylphenyl)-3-oxoisoindolin-4-yl)benzamide] gave an IC50 of 1.7 µM.
`CCc1ccc(NC(=O)c2ccccc2)c2c1CNC2=O` [Example 29, N-(7-ethyl-3-oxoisoindolin-4-yl)benzamide] showed an IC50 of 1.8 µM.
`O=C(Nc1ccc(-c2cc(F)cc(F)c2)c2c1C(=O)NC2)c1ccccc1` [Example 30, N-(7-(3,5-difluorophenyl)-3-oxoisoindolin-4-yl)benzamide] showed an IC50 greater than 20 µM.
In the case of `Cc1ccc(C)c(-c2ccc(NC(=O)c3ccccc3)c3c2CNC3=O)c1` [Example 31, N-(7-(2,5-dimethylphenyl)-3-oxoisoindolin-4-yl)benzamide], the IC50 is reported as 1.6 µM.
With `O=C(Nc1ccc(-c2cc(F)ccc2F)c2c1C(=O)NC2)c1ccccc1` [Example 32, N-(7-(2,5-difluorophenyl)-3-oxoisoindolin-4-yl)benzamide] the IC50 was 1 µM.
With `O=C(Nc1ccc(-c2ccc(F)c(F)c2)c2c1C(=O)NC2)c1ccccc1` [Example 33, N-(7-(3,4-difluorophenyl)-3-oxoisoindolin-4-yl)benzamide] the IC50 was 3.7 µM.
`O=C(Nc1ccc(-c2cccc(F)c2F)c2c1C(=O)NC2)c1ccccc1` [Example 34, N-(7-(2,3-difluorophenyl)-3-oxoisoindolin-4-yl)benzamide] showed an IC50 of 0.54 µM.
Work on `CCCCc1ccc(NC(=O)c2ccccc2)c2c1CNC2=O` [Example 35, N-(7-butyl-3-oxoisoindolin-4-yl)benzamide] yielded an IC50 of 8.6 µM.
`CCCc1ccc(NC(=O)c2ccc(F)cc2)c2c1CNC2=O` [Example 36, 4-fluoro-N-(3-oxo-7-propylisoindolin-4-yl)benzamide] was tested, and the IC50 was greater than 20 µM.
Work on `Cc1ccc(NC(=O)c2ccccc2)c2c1CNC2=O` [Example 37, N-(7-methyl-3-oxoisoindolin-4-yl)benzamide] yielded an IC50 of 6.1 µM.
`Cc1ccc(-c2ccc(NC(=O)c3ccccc3)c3c2CNC3=O)c(C)c1` [Example 38, N-(7-(2,4-dimethylphenyl)-3-oxoisoindolin-4-yl)benzamide] gave an IC50 of 1.7 µM.
For `CCc1ccc(-c2ccc(NC(=O)c3ccccc3)c3c2CNC3=O)cc1` [Example 39, N-(7-(4-ethylphenyl)-3-oxoisoindolin-4-yl)benzamide], the IC50 was 6.1 µM.
Compound `CC(C)Oc1ccc(-c2ccc(NC(=O)c3ccccc3)c3c2CNC3=O)cc1` [Example 40, N-(7-(4-isopropoxyphenyl)-3-oxoisoindolin-4-yl)benzamide] has an IC50 greater than 20 µM.
`CSc1ccc(-c2ccc(NC(=O)c3ccccc3)c3c2CNC3=O)cc1` [Example 41, N-(7-(4-(methylthio)phenyl)-3-oxoisoindolin-4-yl)benzamide] showed an IC50 of 1.2 µM.
Work on `CCc1cccc(-c2ccc(NC(=O)c3ccccc3)c3c2CNC3=O)c1` [Example 42, N-(7-(3-ethylphenyl)-3-oxoisoindolin-4-yl)benzamide] yielded an IC50 of 3.7 µM.
Work on `CCCOc1ccccc1-c1ccc(NC(=O)c2ccccc2)c2c1CNC2=O` [Example 43, N-(3-oxo-7-(2-propoxyphenyl)isoindolin-4-yl)benzamide] yielded an IC50 greater than 20 µM.
With `CCCOc1cccc(-c2ccc(NC(=O)c3ccccc3)c3c2CNC3=O)c1` [Example 44, N-(3-oxo-7-(3-propoxyphenyl)isoindolin-4-yl)benzamide] the IC50 was greater than 20 µM.
`CCCCOc1ccccc1-c1ccc(NC(=O)c2ccccc2)c2c1CNC2=O` [Example 45, N-(7-(2-butoxyphenyl)-3-oxoisoindolin-4-yl)benzamide] was tested, and the IC50 was greater than 20 µM.
With `CCCCOc1cccc(-c2ccc(NC(=O)c3ccccc3)c3c2CNC3=O)c1` [Example 46, N-(7-(3-butoxyphenyl)-3-oxoisoindolin-4-yl)benzamide] the IC50 was greater than 20 µM.
`CS(=O)(=O)c1ccccc1-c1ccc(NC(=O)c2ccccc2)c2c1CNC2=O` [Example 47, N-(7-(2-(methylsulfonyl)phenyl)-3-oxoisoindolin-4-yl) benzamide] was tested, and the IC50 was greater than 20 µM.
`COc1c(F)cccc1-c1ccc(NC(=O)c2ccccc2)c2c1CNC2=O` [Example 48, N-(7-(3-fluoro-2-methoxyphenyl)-3-oxoisoindolin-4-yl) benzamide] gave an IC50 of 0.49 µM.
`COc1cc(Cl)ccc1-c1ccc(NC(=O)c2ccccc2)c2c1CNC2=O` [Example 49, N-(7-(4-chloro-2-methoxyphenyl)-3-oxoisoindolin-4-yl) benzamide] showed an IC50 greater than 20 µM.

From patent publication US9856216B2, “Compounds as TNIK, IKKε and TBK1 inhibitors and pharmaceutical composition comprising same” (GREEN CROSS CORPORATION, priority 2015, dated 2018)
